Earlier results as cited in US20240130871A1, “DRUG-COATED ENDOVASCULAR DEVICES” (UNIVERSITY OF SOUTH CAROLINA, priority 2022, published 2024).

Details: current DCB devices

In the case of `CC(=O)O[C@H]1C(=O)[C@@]2(C)[C@H]([C@H](OC(=O)c3ccccc3)[C@]3(O)C[C@H](OC(=O)[C@H](O)[C@@H](NC(=O)c4ccccc4)c4ccccc4)C(C)=C1C3(C)C)[C@]1(OC(C)=O)CO[C@@H]1C[C@@H]2O` [PTX, paclitaxel], the “delivered PTX lost to systemic circulation” value is given as greater than 90%.
